# Experimental data: patent publication US20090060984A1, “ANIONIC SURFACTANTS LETHAL TO GRAM-POSITIVE BACTERIA” (priority 2007, published 2009)
# Like-named read-outs stand apart in the source and are kept apart here.
# Tested on: P. aeruginosa ATCC 15442
# Details: for CFU/mL of E. coli at 24 hours / CFU/mL of E. coli at 12 hours: exposed to P. aeruginosa, polyurethane, microscope slides
# Experimental: Escherichia coli ATCC 11229 (Culti-loops, Remel Europe, Dartford, Kent, UK) and Pseudomonas aeruginosa ATCC 15442 (Cuti-loops, Remel Europe, Dartford, Kent, UK) were selected as model Gram-negative organisms for the challenge testing of the antimicrobial coatings. Each bacterial strain was streaked for isolated colonies on Tryptic Soy Agar (TSA) plates (Difco, Becton Dickinson, Sparks, Md., U.S.A.) and incubated at 37° C. for 12 to 18 hours. Broth cultures were prepared by first picking 1-2 isolated colonies from TSA plates and inoculating 5 mL Tryptic Soy Broth (TSB; Difco, Becton Dickinson, Sparks, Md., U.S.A.) in a 16 mm test tube. This culture was grown in a shaking water bath at 150 RPM for 8 hours at 37° C. After the eight hours, 125 μL of this culture was added to 50 mL of TSB in a side-arm Klett flask and grown for approximately 8 hours in shaking water bath (150 RPM) at 37° C. The bacterial broths were grown to an A590 of 1.2-1.5, which correlated to approximately 10^9 CFU (colony forming units)/mL. 25 mL of this broth were transferred to a sterile 30 mL Oakridge tube and centrifuged at 12,000×g for 10 minutes at 4° C. (Sorval SS34 rotor) to pelletize the bacteria. The bacterial pellet was washed once and resuspended in 25 mL of phosphate buffer solution (PBS; BBL, FTA Hemaglutination Buffer, Becton Dickinson, Sparks, Md., U.S.A.). The suspension was diluted with PBS to achieve the target range of 10^5-10^6 CFU/mL and used to inoculate the slides containing antibacterial coatings.
# The 10% substitution on this weight basis corresponds to substitution of one tenth of the total surfactant weight or to 3% of the total composition weight.
# The second set of coatings was made on microscope slides and challenged with E. coli ATCC 11229 and P. aeruginosa ATCC 15442. In these coatings, the gradient levels of incorporated silver were: 0%, 0.02%, 0.05%, 0.1%, 0.2%, 0.5%, 1.0% and 2.0% of the 30% NaAOT control amount. […] These gradients were tested at three inoculation time points, 0 hours, 12 hours, and 24 hours, with the 0% silver and 0 hours slides as controls.
# The bacterial cultures were prepared as described in Example 12. Once the slides were inoculated, those assigned to incubate for 12 hours or 24 hours were placed in a humidified chamber by placing the Petri dishes containing the slides on test tubes that had been taped to the bottom of a 9″×13″ Pyrex dish. These test tubes held the Petri dishes just above the bottom of the dish, into which about 500 mL of sterile water was added. The Pyrex dish was also sterilized via UV irradiation (at least 4 minutes of exposure) prior to each challenge to protect against contamination. The dish was then covered with plastic wrap and tin foil and incubated at room temperature (20° C. to 25° C.).
# At each time point (0 hours, 12 hours, and 24 hours), 25 mL of sterile PBS was pipetted into the Petri dish completely submerging the glass slide coated with the antimicrobial polymer.
# [1] = 0.061% weight w/w Ag in coating (first column 0.113)
# [2] = 0.122% weight w/w Ag in coating (first column 0.226)
# [3] = […] weight w/w Ag in coating (first column 0.0574)
smiles,measurement,setting,value
CCCCC(CC)COC(=O)CC(C(=O)OCC(CC)CCCC)S(=O)(=O)[O-].[Ag+] (centres unmarked) [AgAOT],Overall silver level effective as bactericide,12 hours of exposure,0.06 % weight silver relative to coating weight
same,Smallest level examined that appears effective at killing the P. aeruginosa,24 h exposure,0.0012 % weight Ag relative to overall coating weight
same,Overall silver level effective as bactericide,24 hours of exposure,0.006 % weight silver relative to coating weight
same,CFU/mL of E. coli at 24 hours,0.0061% weight w/w Ag in coating (first column 0.0113),"0, 0, 0 CFU/mL"
same,CFU/mL of E. coli at 12 hours,[1],"0, 0, 0 CFU/mL"
same,CFU/mL of E. coli at 24 hours,[1],"0, 0, 0 CFU/mL"
same,CFU/mL of E. coli at 12 hours,[2],"0, 0, 0 CFU/mL"
same,CFU/mL of E. coli at 24 hours,[2],"0, 0, 0 CFU/mL"
same,CFU/mL of E. coli at 24 hours,[…] weight w/w Ag in coating (first column 0.00230),"0, 0, 0 CFU/mL"
same,CFU/mL of E. coli at 12 hours,[3],"0, 0, 0 CFU/mL"
same,CFU/mL of E. coli at 24 hours,[3],"0, 0, 0 CFU/mL"
